From patent publication US20090099158A1, “TETRAHYDROISOQUINOLINE COMPOUNDS AS MODULATORS OF THE HISTAMINE H3 RECEPTOR” (priority 2007, published 2009)

What follows are compounds tested against T1, cloned human H3 receptors (Homo sapiens, UniProt Q9Y5N1) (assay: H3 Receptor Binding (Human)). Settings: cloned human H3 receptors stably expressed in SK-N-MC cells; average of the results obtained.
T1 construct: expressed in transfected cells; host or cells: SK-N-MC cells
Description: Binding of compounds to the cloned human H3 receptors, stably expressed in SK-N-MC cells, was performed as described by Barbier, A. J. et al. (Br. J. Pharmacol. 2004, 143(5), 649-661). Data for compounds tested in this assay are presented in Table 1 as an average of the results obtained.

T1 sequence (Q9Y5N1 whole entry): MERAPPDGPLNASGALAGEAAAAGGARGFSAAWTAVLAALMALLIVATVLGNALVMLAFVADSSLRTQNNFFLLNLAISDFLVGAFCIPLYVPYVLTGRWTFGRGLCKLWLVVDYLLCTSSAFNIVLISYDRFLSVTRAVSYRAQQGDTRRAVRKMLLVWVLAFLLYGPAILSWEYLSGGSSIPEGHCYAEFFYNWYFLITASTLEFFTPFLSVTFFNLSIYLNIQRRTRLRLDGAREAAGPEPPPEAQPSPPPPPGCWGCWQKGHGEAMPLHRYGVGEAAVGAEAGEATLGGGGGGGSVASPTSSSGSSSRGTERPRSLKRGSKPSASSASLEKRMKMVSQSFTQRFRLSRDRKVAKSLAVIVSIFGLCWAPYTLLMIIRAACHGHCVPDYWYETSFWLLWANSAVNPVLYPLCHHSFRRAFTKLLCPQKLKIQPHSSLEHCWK

Ki [nM]	Compound
180	O=C(c1ccc2c(c1)CCN(C(=O)c1ccc(Cl)cc1)C2)N1CCN(C2CCCCC2)CC1 [Example 77, [2-(4-Chloro-benzoyl)-1,2,3,4-tetrahydro-isoquinolin-6-yl]-(4-cyclohexyl-piperazin-1-yl)-methanone]
7	COc1ccc(CC(=O)N2CCc3cc(C(=O)N4CCC[C@H]4CN4CCCC4)ccc3C2)cc1 [Example 61]
7000	O=C(c1ccc2c(c1)CCN(Cc1ccccc1)C2)N1CCCCC1 [Example 12, (2-Benzyl-1,2,3,4-tetrahydro-isoquinolin-6-yl)-piperidin-1-yl-methanone]
2	CCCc1ccc(C(=O)N2CCc3cc(C(=O)N4CCCN(C5CCC5)CC4)ccc3C2)cc1 [Example 140, [6-(4-Cyclobutyl-[1,4]diazepane-1-carbonyl)-3,4-dihydro-1H-isoquinolin-2-yl]-(4-propyl-phenyl)-methanone]
22	O=C(c1ccc2c(c1)CCN(S(=O)(=O)c1ccccc1)C2)N1CCN(C2CCC2)CC1 [Example 103, (2-Benzenesulfonyl-1,2,3,4-tetrahydro-isoquinolin-6-yl)-(4-cyclobutyl-piperazin-1-yl)-methanone]
9	O=C(c1ccc2c(c1)CCN(C(=O)c1ccc(F)cc1F)C2)N1CCN(C2CCC2)CC1 [Example 126, (4-Cyclobutyl-piperazin-1-yl)-[2-(2,4-difluoro-benzoyl)-1,2,3,4-tetrahydro-isoquinolin-6-yl]-methanone]
28	CC(C)N1CCN(C(=O)c2ccc3c(c2)CCN(Cc2ccccc2)C3)CC1 [Example 21, (2-Benzyl-1,2,34-tetrahydro-isoquinolin-6-yl)-(4-isopropyl-piperazin-1-yl)-methanone]
15	N#Cc1ccc(CN2CCc3cc(C(=O)N4CCN(C5CCC5)CC4)ccc3C2)cc1 [Example 25, 4-[6-(4-Cyclobutyl-piperazine-1-carbonyl)-3,4-dihydro-1H-isoquinolin-2-ylmethyl]-benzonitrile]
17	O=C(c1ccc2c(c1)CCN(C(=O)c1ccc(F)cc1)C2)N1CCN(C2CCC2)CC1 [Example 125, (4-Cyclobutyl-piperazin-1-yl)-[2-(4-fluoro-benzoyl)-1,2,3,4-tetrahydro-isoquinolin-6-yl]-methanone]
1	O=C(c1ccc2c(c1)CCN(C(=O)C1CCCO1)C2)N1CCCN(C2CCC2)CC1 (stereo not drawn) [Example 138, [6-(4-Cyclobutyl-[1,4]diazepane-1-carbonyl)-3,4-dihydro-1H-isoquinolin-2-yl]-(tetrahydro-furan-2-yl)-methanone]
1150	O=C(C1CCCCC1)N1CCc2cc(C(=O)N3C[C@@H]4C[C@H]3CN4C3CCC3)ccc2C1 [Example 164, (1S,4S)-(5-Cyclobutyl-2,5-diaza-bicyclo[2.2.1]hept-2-yl)-(2-cyclohexanecarbonyl-1,2,3,4-tetrahydro-isoquinolin-6-yl)-methanone]
7	O=C(c1ccc2c(c1)CCN(C(=O)c1ccc([N+](=O)[O-])cc1)C2)N1CCN(C2CCC2)CC1 [Example 122, [6-(4-Cyclobutyl-piperazine-1-carbonyl)-3,4-dihydro-1H-isoquinolin-2-yl]-(4-nitro-phenyl)-methanone]
12	COc1cccc(C(=O)N2CCc3cc(C(=O)N4CCC[C@H]4CN4CCCC4)ccc3C2)c1 [Example 59, (S)-(3-Methoxy-phenyl)-[6-(2-Pyrrolidin-1-ylmethyl-pyrrolidine-1-carbonyl)-3,4-dihydro-1H-isoquinolin-2-yl]-methanone]
8	CC(C)N1CCCN(C(=O)c2ccc3c(c2)CCN(C(=O)OC(C)(C)C)C3)CC1 [Example 1, 6-(4-Isopropyl-[1,4]diazepane-1-carbonyl)-3,4-dihydro-1H-isoquinoline-2-carboxylic acid tert-butyl ester]
1390	O=C(C1CCCCC1)N1CCc2cc(CN3CCOCC3)ccc2C1 [Example 167, Cyclohexyl-(6-morpholin-4-ylmethyl-3,4-dihydro-1H-isoquinolin-2-yl)-methanone]
16	O=C(c1ccc2c(c1)CCN(C(=O)c1ccc(O)cc1)C2)N1CCN(C2CCC2)CC1 [Example 123, [6-(4-Cyclobutyl-piperazine-1-carbonyl)-3,4-dihydro-1H-isoquinolin-2-yl]-(4-hydroxy-phenyl)-methanone]
14	O=C(c1ccc2c(c1)CCN(C(=O)C1CC1)C2)N1CCN(C2CCC2)CC1 [Example 34, [6-(4-Cyclobutyl-piperazine-1-carbonyl)-3,4-dihydro-1H-isoquinolin-2-yl]-cyclopropyl-methanone]
3300	CC(C)N1CCc2cc(C(=O)N3CCC(C(C)(C)O)CC3)ccc2C1 [Example 178, [4-(1-Hydroxy-1-methyl-ethyl)-piperidin-1-yl]-(2-isopropyl-1,2,3,4-tetrahydro-isoquinolin-6-yl)-methanone]

Ki [nM]	Compound
19	O=C(c1ccc2c(c1)CCN(C(=O)c1ccc(F)c(Cl)c1)C2)N1CCN(C2CCC2)CC1 [Example 128, [2-(3-Chloro-4-fluoro-benzoyl)-1,2,3,4-tetrahydro-isoquinolin-6-yl]-(4-cyclobutyl-piperazin-1-yl)-methanone]
109	CC(C)N1CCC(C(=O)N2CCc3cc(C(=O)N4CCOCC4)ccc3C2)CC1 [Example 149, [2-(1-Isopropyl-piperidine-4-carbonyl)-1,2,3,4-tetrahydro-isoquinolin-6-yl]-morpholin-4-yl-methanone]
1	CO[C@H]1CC[C@H](C(=O)N2CCc3cc(C(=O)N4CCCN(C5CCC5)CC4)ccc3C2)CC1 [Example 147, trans-[6-(4-Cyclobutyl-[1,4]diazepane-1-carbonyl)-3,4-dihydro-1H-isoquinolin-2-yl]-(4-methoxy-cyclohexyl)-methanone]
4090	O=C(c1ccc2c(c1)CCN(C(=O)C1CCCCC1)C2)N1CCC(N2CCOCC2)CC1 [Example 158, Cyclohexyl-[6-(4-morpholin-4-yl-piperidine-1-carbonyl)-3,4-dihydro-1H-isoquinolin-2-yl]-methanone]
29	CC(C)N1CCN(C(=O)c2ccc3c(c2)CCN(Cc2ccc(Cl)c(Cl)c2)C3)CC1 [Example 19, [2-(3,4-Dichloro-benzyl)-1,2,3,4-tetrahydro-isoquinolin-6-yl]-(4-isopropyl-piperazin-1-yl)-methanone]
17	CC(C)N1CCN(C(=O)c2ccc3c(c2)CCN(C(=O)c2ccsc2)C3)CC1 [Example 106, (4-Isopropyl-piperazin-1-yl)-[2-(thiophene-3-carbonyl)-1,2,34-tetrahydro-isoquinolin-6-yl]-methanone]
9	O=C(C1CCCCC1)N1CCc2cc(C(=O)N3CCC[C@H]3CN3CCCC3)ccc2C1 [Example 150, (S)-Cyclohexyl-[6-(2-Pyrrolidin-1-ylmethyl-pyrrolidine-1-carbonyl)-3,4-dihydro-1H-isoquinolin-2-yl]-methanone]
22	Cc1ccc(C(=O)N2CCc3cc(C(=O)N4CCC[C@H]4CN4CCCC4)ccc3C2)cc1 [Example 55, (S)-[6-(2-Pyrrolidin-1-ylmethyl-pyrrolidine-1-carbonyl)-3,4-dihydro-1H-isoquinolin-2-yl]-p-tolyl-methanone]
19	O=C(c1cccc(Cl)c1)N1CCc2cc(C(=O)N3CCN4CCCCC4C3)ccc2C1 (stereo not drawn) [Example 90, [2-(3-Chloro-benzoyl)-1,2,3,4-tetrahydro-isoquinolin-6-yl]-(octahydro-pyrido[1,2-a]pyrazin-2-yl)-methanone]
1	O=C(c1ccc2c(c1)CCN(C1CCC1)C2)N1CCCN(C2CCC2)CC1 [Example 189, (4-Cyclobutyl-[1,4]diazepan-1-yl)-(2-cyclobutyl-1,2,3,4-tetrahydro-isoquinolin-6-yl)-methanone]
16	O=C(c1ccc2c(c1)CCN(S(=O)(=O)c1ccc(F)cc1)C2)N1CCN(C2CCC2)CC1 [Example 104, (4-Cyclobutyl-piperazin-1-yl)-[2-(4-fluoro-benzenesulfonyl)-1,2,3,4-tetrahydro-isoquinolin-6-yl]-methanone]
87	O=C(c1ccc2c(c1)CCN(C(=O)C1CCC1)C2)N1CCN(C2CCC2)CC1 [Example 31, Cyclobutyl-[6-(4-cyclobutyl-piperazine-1-carbonyl)-3,4-dihydro-1H-isoquinolin-2-yl]-methanone]
19	CC(C)N1CCN(C(=O)c2ccc3c(c2)CCN(Cc2ccc(C(F)(F)F)cc2)C3)CC1 [Example 20, (4-Isopropyl-piperazin-1-yl)-[2-(4-trifluoromethyl-benzyl)-1,2,3,4-tetrahydro-isoquinolin-6-yl]-methanone]
17	COc1cccc(C(=O)N2CCc3cc(C(=O)N4CCN5CCCCC5C4)ccc3C2)c1 (stereo not drawn) [Example 93, [2-(3-Methoxy-benzoyl)-1,2,3,4-tetrahydro-isoquinolin-6-yl]-(octahydro-pyrido[1,2-a]pyrazin-2-yl)-methanone]
109	O=C(c1ccc2c(c1)CCN(C(=O)c1ccc(F)cc1)C2)N1CCN(C2CCCCC2)CC1 [Example 74, (4-Cyclohexyl-piperazin-1-yl)-[2-(4-fluoro-benzoyl)-1,2,3,4-tetrahydro-isoquinolin-6-yl]-methanone]
27	O=C(c1ccc2c(c1)CCN(C(=O)c1ccccc1F)C2)N1CCN2CCCCC2C1 (stereo not drawn) [Example 86, [2-(2-Fluoro-benzoyl)-1,2,3,4-tetrahydro-isoquinolin-6-yl]-(octahydro-pyrido[1,2-a]pyrazin-2-yl)-methanone]
9	O=C(c1ccc2c(c1)CCN(C(=O)C1CCCCC1)C2)N1CCN2CCCCC2C1 (stereo not drawn) [Example 152, Cyclohexyl-[6-(octahydro-pyrido[1,2-a]pyrazine-2-carbonyl)-3,4-dihydro-1H-isoquinolin-2-yl]-methanone]
80	CC(=O)N1CCc2cc(C(=O)N3CCN(C(C)C)CC3)ccc2C1 [Example 29, 1-[6-(4-Isopropyl-piperazine-1-carbonyl)-3,4-dihydro-1H-isoquinolin-2-yl]-ethanone]
